Data on four compounds can be found in patent US9790225B2, “4-amino-3-phenylamino-6-phenylpyrazolo[3,4-d]pyrimidine derivatives, their manufacture and their use as antiviral active substances” (Scandion Oncology A/S, priority 2011, dated 2017).

The conditions of series [1]: cited from earlier work.
The conditions of series [2]: in vivo; cited from earlier work.
For series [3] the following is noted: in vivo; cited from earlier work. The source holds these as a separate data set.
For series [4] the following is noted: in vivo; cited from earlier work. This is another data set of the same source.
Series [5] has as its system 48 rhinovirus types, coxsackie virus A21, enterovirus 70, echovirus 11. The note with it: Pattick et al. 1999; cited from earlier work.
Series [6] is described as follows: In vivo conversion of prodrug to 1H pyrazol compound (serum). The note with it: in the serum mainly only the final active ingredient (CRCV-340) can be proven. The text has this:
Also covered are pro pharmacons (prodrugs) of the compounds, especially those which are characterized by a substituent on the pyrazol heteroatom in position 1. It has been shown that such types of compounds are converted in vivo to the 1H pyrazol compound. As an example, compounds have been mentioned in respect of which the pyrazol heteroatom in position 1 is substituted by an imino(phenyl)methyl substituent, such as, for example, 1-[Imino(phenyl)methyl]-4-amino-3-(4-trifluormethyl-phenyl)amino-6-phenylpyrazolo[3,4-d]pyrimidine, also designated by the IUPAC name 1-benzylcarboximidoyl-6-phenyl-3-N-[4-(trifluormethyl)phenyl]-1H-pyrazolo[3,4-d]-pyrimidine-3,4-diamine. Here this relates to a by-product of the manufacture of the compound described above, CRCV-340, resulting from the reaction of the compound CRCV-340 with an excess of benzamidine in the reaction mixture and having the following formula: […]
Also included are the salts, solvates or solvates of the salts produced by the above compounds. Within the scope of this invention the preferred salts are physiologically harmless salts of the compounds relating to the invention. […]

For `CCC(=O)C(CCCCCCOc1ccc(OC)cc1Cl)C(=O)CC` [arildone], the Solubility entry in series [1] was “Poor solubility”. In addition, the Bioavailability entry in series [2] is reported as “low bioavailability”.

For `Cc1cc(CCCCCOc2c(Cl)cc(C3=NCCO3)cc2Cl)on1` [WIN 54954], the Metabolisation and excretion result in series [3] was “fast metabolisation and excretion”. The Side effects result in series [4] was “skin rash”.

Take `CCOC(=O)/C=C/[C@H](C[C@@H]1CCNC1=O)NC(=O)[C@@H](CC(=O)[C@@H](NC(=O)c1cc(C)on1)C(C)C)Cc1ccc(F)cc1` [AG 7088]: the “Active concentration range in cell culture” value in series [5] was “nanomolar concentration range”.

Take `N=C(c1ccccc1)n1nc(Nc2ccc(C(F)(F)F)cc2)c2c(N)nc(-c3ccccc3)nc21` [CRCV-340 prodrug, 1-[Imino(phenyl)methyl]-4-amino-3-(4-trifluormethyl-phenyl)amino-6-phenylpyrazolo[3,4-d]pyrimidine]: the “Conversion in vivo into the target compound” value in series [6] is given as “very easily converted into the target compound”.
